Holding throughout (format): in vivo
One test deals with oat grains. Description: Growth inhibition/oat grains. Conditions: 72 h, shoot length after 3 days vs control, dark, 25°C, pH 6. On the procedure: (§1) Solvent: 40 parts by weight acetone
(§2) Emulsifier: 0.25 parts by weight alkylaryl polyglycol ether
(§3) To produce a suitable preparation of active compound, 1 part by weight of active compound was mixed with the stated amount of solvent which contained the stated amount of emulsifier, and the concentrate was diluted with a disodium hydrogen phosphate-potassium dihydrogen phosphate buffer solution (pH 6) to the desired concentration.
Batches of 25 oat grains were laid out on two filter papers in a Petri dish. 10 ml. of the preparation of active compound were pipetted into each dish. Germination of the seeds took place in the dark at 25°C.
After 3 days, the length of the shoot was determined and the growth inhibition compared with the control plant was expressed as a percentage. 100% denoted the standstill of growth, and 0% denoted a growth corresponding to that of the untreated plant.
The active compounds, concentrations of the active compounds in ppm (=mg/kg) and the results can be seen from the following Table.

A further test has as its system apple seedlings. Description: Growth inhibition/apple seedlings. Conditions: 168 h; 500 ppm spray on seedlings about 2 cm high; after 7 days vs untreated control. How it is done: as §1, §2, §3
Apple seedlings were, at a height of about 2 cm, sprayed with a preparation which contained 500 ppm of active compound.
After 7 days, the percentage inhibition of the treated plants compared with the untreated control plant was determined. With 100% inhibition, no growth was present; with 0% inhibition, the growth corresponded to that of the control plant.
The active compounds, the concentrations of the active compounds in ppm (=mg/kg) and the results can be seen from the following Table.

The test system of another test is tomato plants. Description: Growth inhibition/tomato plants. The note with it: Solanum lycopersicum, 192 h; 500 ppm spray on plants 10 cm high; after 8 days vs untreated control. How it is done:
as §1, §2
To produce a suitable preparation of active compounds, 1 part by weight of active compound was mixed with the stated amount of solvent which contained the stated amount of emulsifier, and the concentrate was diluted with a disodium hydrogen phosphate-potassium dihydrogen phosphate buffer solution (pH 6) to the desired concentration.
Tomato plants of a height of 10 cm were sprayed with a preparation which contained 500 ppm of active compound.
After 8 days, the percentage inhibition of the treated plants compared with the untreated control plant was determined. With 100% inhibition, no growth was present; with 0% inhibition, the growth corresponded to that of the control plant.
The active compounds, concentration of active compound in ppm (=mg/kg) and the results can be seen from the following Table.

In test [1] the test system is beans (Phaseolus vulgaris). Description: Growth inhibition/bean plants. Conditions: 500 ppm spray on beans 10 cm high; length after 8 days; water control 26 cm. On the procedure:
as §1, §2
To produce a suitable preparation of active compound, 1 part by weight of active compound was mixed with the stated amount of solvent which contained the stated amount of emulsifier, and the concentrate was diluted with a disodium hydrogen phosphate-potassium dihydrogen phosphate buffer solution (pH 6) to the desired concentrations.
Beans (Phaseolus vulgaris) 10 cm high were sprayed with preparations which contained 500 ppm of active compound.
After 8 days, the length of the treated plants compared with the untreated control plant was determined.
The active compounds, concentrations of active compound in ppm (=mg/kg) and the results can be seen from the following Table.

For a further test, the system named is linseed. Description: Growth inhibition/linseed test. The note with it: 72 h, root length after 3 days vs control, dark, 25°C, pH 6. On the procedure:
as §1, §2, §3
Batches of 25 linseeds were laid out on two filter papers in a Petri dish. 10 ml. of the preparation of active compound were pipetted into each dish. Germination of the seeds took place in the dark at 25°C.
After 3 days, the length of the roots was determined and the growth inhibition compared with the control plant was expressed as a percentage. 100% denoted the standstill of growth, and 0% denoted a growth corresponding to that of the untreated plant.
The active compounds, the concentrations of the active compounds in ppm (=mg/kg) and results can be seen from the following Table.

On to `Cc1cc(C(c2ccccc2)(c2ccccc2)n2cncn2)no1` [Compound 4, bis-phenyl-(5-methyl-isoxazol-3-yl)-(1,2,4-triazol-1-yl)-methane], for which, in the test with oat grains, 50 ppm produced 65% inhibition and 250 ppm produced 75% inhibition. Moreover, the inhibition – broadly, how much of the control response was suppressed – at 500 ppm in the test with apple seedlings is 43%. Also, the inhibition at 500 ppm in the test with tomato plants came to 80%.

With `Cn1ccnc1C(c1ccccc1)(c1ccc(-c2ccccc2)cc1)n1cncn1` (stereo not shown) [Compound 8, (4-phenyl-phenyl)-phenyl(1-methyl-imidazol-2-yl)-(1,2,4-triazol-1-yl)-methane], the “Length in cm with a concentration of active compound of 500 ppm” value (“Length in cm with a concentration” below) in test [1] is given as 11.5 cm.

Consider `Cc1cc(C(c2ccccc2)(c2ccc(F)cc2)n2cncn2)no1` (stereo not shown) [Compound 1, (4-fluoro-phenyl)-phenyl-(5-methyl-isoxazol-3-yl)-(1,2,4-triazol-1-yl)-methane], for which the figures for the inhibition at 50 ppm in the test on linseed and in the test with oat grains were 85% and 97%, respectively. The inhibition at 250 ppm with linseed and in the test with oat grains was 100% in each case. Also, the inhibition at 500 ppm in the test with apple seedlings turned out to be 50%; in the test on tomato plants it was 81%. Further, the “Length in cm with a concentration” value in test [1] is given as 10.5 cm.

On to `C[N+](C)(C)CCCl` [(2-chloroethyl)-trimethyl-ammonium chloride, reference compound], for which the inhibition at 50 ppm in the test on linseed stood at 20%; in the test on oat grains, 22%. Also, the inhibition at 250 ppm stood at 30% in the test with linseed and 31% with oat grains. The inhibition at 500 ppm with apple seedlings and with tomato plants was 25% throughout.

As to `Cn1ccnc1C(c1ccccc1)(c1ccc(Cl)cc1)n1cncn1` (stereo not shown) [Compound 6, (4-chloro-phenyl)-phenyl-(1-methyl-imidazol-2-yl)-(1,2,4-triazol-1-yl)-methane], in the test on oat grains, the inhibition at 50 ppm was 25% and the inhibition at 250 ppm stood at 70%.

In the test on oat grains, `Cn1ccnc1C(c1ccccc1)(c1ccc(C(C)(C)C)cc1)n1cncn1` (stereo not shown) [Compound 7, (4-tert.-butyl-phenyl)-phenyl(1-methyl-imidazol-2-yl)-(1,2,4-triazol-1-yl)-methane] yielded an inhibition at 50 ppm of 25% and an inhibition at 250 ppm of 62%.

With `Cc1cc(C(c2ccccc2)(c2ccc(Cl)cc2)n2cncn2)no1` (stereo not shown) [Compound 2, (4-chloro-phenyl)-phenyl-(5-methyl-isoxazol-3-yl)-(1,2,4-triazol-1-yl)-methane], in the test on linseed, at 50 ppm the inhibition was 55% and the inhibition at 250 ppm was 85%. In the test on oat grains, this compound yielded an inhibition at 50 ppm of 55% and an inhibition at 250 ppm of 95%. For the same compound, testing at 500 ppm in the test with tomato plants gave an inhibition of 88%. In test [1], the “Length in cm with a concentration” value stood at 10.0 cm.

In the case of `O=c1ccc(=O)[nH][nH]1` [maleic acid hydrazide, reference compound], in the test on linseed, the inhibition at 50 ppm stood at 36% and the inhibition at 250 ppm worked out at 50%. Further, in the test with oat grains, the inhibition at 50 ppm is 20% and the inhibition at 250 ppm turned out to be 40%. Moreover, testing at 500 ppm with tomato plants gave an inhibition of 33%. In test [1], the “Length in cm with a concentration” value came out at 12 cm.

On to `CN(C)NC(=O)CCC(=O)O` [succinic acid 2,2-dimethylhydrazide, reference compound], for which the inhibition at 50 ppm was determined as 12% in the test on linseed and 22% with oat grains. In addition, the inhibition at 250 ppm in the test with linseed turned out to be 15%; in the test with oat grains, 37%. Also, the results for the inhibition at 500 ppm in the test with apple seedlings and with tomato plants were 23% and 20%, respectively.

In the test with linseed, `Cc1cccc(C(c2ccccc2)(c2nccn2C)n2cncn2)c1` (stereo not shown) [Compound 3, (3-methyl-phenyl)-phenyl-(1-methyl-imidazol-2-yl)-(1,2,4-triazol-1-yl)-methane] had an inhibition at 50 ppm of 85% and an inhibition at 250 ppm of 100%. This compound also yielded an inhibition at 500 ppm with tomato plants of 60%.

The record behind these values is US3941800A, “N-benzyltriazole compounds” (Bayer Aktiengesellschaft, priority 1969, dated 1976).
